Assay results published in US3968233A, “α-Amino-γ-butyrolactones as sedatives” (priority 1975, dated 1976).
Entries after “also recorded” stand apart in the source; their conditions may differ.

Key:
Choleresis = assay type: in vivo; settings: single 500 mg/kg oral dose
Method: (§1) The effect of a single 500 mg/kg oral dose of AP-28 was determined on (a) diuresis in water-loaded rats, (b) choleresis, (c) the excretion rate of intravenously-injected bromosulfonphthalein in bile, (d) arterial blood pressure.

[1] = Spontaneous mobility (light beam interruptions); assay type: in vivo, mouse
Method: Several groups of four mice each were placed in an apparatus designed to provide a measure of spontaneous mobility by counting the number of interruptions of a light beam for a period of 10 minutes. After preliminary measurement of mobility, animals were injected with AP-28 (250 and 500 mg/kg) intraperitoneally. Control animals received saline solution. Ten minutes thereafter the measurement of mobility was repeated. Five groups of mice were used as controls and six other groups were treated with varying doses of AP-28.

[2] = Clinical trial, 3rd group: essential epilepsy; assay type: in vivo, human; settings: 0.500 to 1.500 g daily, 10 to 30 days
Method: (§2) Clinical trials were performed on three groups of patients, partly hospitalized patients and partly outpatients. It was determined that the effect observed in the experimental pharmacological studies were useful in the treatment of humans as well.
Four patients suffering from essential epilepsy were treated for periods of time varying between 10 and 30 days with daily doses ranging from 0.500 to 1.500 g. […] In the fourth patient it was possible to lower the anti-epileptic massive therapy they had been following for some time, and on which they were maintained throughout this study, by more than 50%.

[3] = Subacute toxicity, daily oral dosing for 6 consecutive days; assay type: in vivo, rat; settings: 500 mg/kg daily for 6 consecutive days
Method: Accordingly, 8 rats were given 500 mg/kg daily for 6 consecutive days.

[4] = Clinical studies, overall; assay type: in vivo, human; settings: humans
Method: as §2

Arterial blood pressure = assay type: in vivo; settings: single 500 mg/kg oral dose
Method: as §1

[5] = Acute toxicity of AP-28 in the rat; assay type: in vivo, rat (Wistar-Morini Strain); settings: for Died/treated: in 24 hours; for Remarks: oral
Method: AP-28 was administered to adult rats (Wistar-Morini Strain) of both sexes after fasting overnight. It was administered in an aqueous 1-percent suspension of tragacanth gum orally by gastric probe or intraperitoneally.

[6] = oral (gastric probe), 250 mg/kg
[7] = oral (gastric probe), 500 mg/kg
[8] = oral (gastric probe), 1000 mg/kg
[9] = oral (gastric probe), 1500 mg/kg
[10] = oral (gastric probe), 2000 mg/kg

Structure (SMILES): CCCCOC(=O)NC1CCOC1=O (stereo not drawn) [AP-28, α-n-butoxycarbonyl-amino-γ-butyrolactone]
- choleresis (Choleresis): No treatment caused any significant change
- Percent reduction at 2nd measurement ([1]; 250 mg/kg i.p.): 68.1%
- mobility, percent of the baseline values ([1]; 250 mg/kg i.p.): 31.9%
- Percent reduction at 2nd measurement ([1]; 500 mg/kg i.p.): 76.9%
- mobility, percent of the baseline values ([1]; 500 mg/kg i.p.): 23.1%
- Mean number of crossings (± SE) ([1]; after treatment, 250 mg/kg i.p.): 84.1 ± 15
- Mean number of crossings (± SE) ([1]; after treatment, 500 mg/kg i.p.): 50.5 ± 5
- Mean number of crossings (± SE) ([1]; before treatment, 250 mg/kg i.p. group): 261.5 ± 25
- Mean number of crossings (± SE) ([1]; before treatment, 500 mg/kg i.p. group): 229 ± 15
- lowering of anti-epileptic massive therapy, fourth patient [2]: more than 50%
- sedative effect or other abnormal symptoms [3]: No sedative effect or other abnormal symptoms were observed
- tendency to accumulate in the organism [3]: no tendency for AP-28 to accumulate in the organism
- adverse effects [4]: No adverse effects were observed
- arterial blood pressure (Arterial blood pressure): No treatment caused any significant change
- loss of the righting reflex ([5]; highest oral dose): did not cause the loss of the righting reflex
- Remarks: sedated for ([5]; i.p., 250 mg/kg): about 15 minutes
- Under hypnosis/treated (loss of the righting reflex) ([5]; i.p., 250 mg/kg): 0/4
- Died/treated ([5]; i.p., 250 mg/kg): 0/4
- Remarks: sedated for ([5]; i.p., 500 mg/kg): about 20 minutes
- Under hypnosis/treated (loss of the righting reflex) ([5]; i.p., 500 mg/kg): 0/4
- Died/treated ([5]; i.p., 500 mg/kg): 0/4
- loss of the righting reflex ([5]; i.p., 1 g/kg): the loss of the righting reflex occurred
- Remarks: under hypnosis for ([5]; i.p., 1000 mg/kg): about 15 minutes
- Under hypnosis/treated (loss of the righting reflex) ([5]; i.p., 1000 mg/kg): 4/4
- Died/treated ([5]; i.p., 1000 mg/kg): 0/4
- Remarks: under hypnosis for ([5]; i.p., 1500 mg/kg): about 30 minutes
- Under hypnosis/treated (loss of the righting reflex) ([5]; i.p., 1500 mg/kg): 4/4
- Died/treated ([5]; i.p., 1500 mg/kg): 0/4
- Remarks: under hypnosis for ([5]; i.p., 2000 mg/kg): about 60 minutes
- Under hypnosis/treated (loss of the righting reflex) ([5]; i.p., 2000 mg/kg): 4/4
- Died/treated ([5]; i.p., 2000 mg/kg): 0/4
- toxicity ([5]; laboratory animals, summary statement): toxicity is nearly negligible
- Under hypnosis/treated (loss of the righting reflex) [5, 6]: 0/4
- Died/treated [5, 6]: 0/4
- Under hypnosis/treated (loss of the righting reflex) [5, 7]: 0/4
- Died/treated [5, 7]: 0/4
- Under hypnosis/treated (loss of the righting reflex) [5, 8]: 0/4
- Died/treated [5, 8]: 0/4
- Under hypnosis/treated (loss of the righting reflex) [5, 9]: 0/4
- Died/treated [5, 9]: 0/4
- Under hypnosis/treated (loss of the righting reflex) [5, 10]: 0/4
- Died/treated [5, 10]: 0/4
- Remarks ([5]; 250 mg/kg): No particular effect
- Remarks ([5]; 500 mg/kg): did not cause any particular effect
- Remarks ([5]; 1000 mg/kg): Slightly sedated; also recorded: a mild sedative effect
- Remarks ([5]; 1500 mg/kg): Sedated
- Remarks ([5]; 2000 mg/kg (highest oral dose), 2000 mg/kg): produced a sedative effect; also recorded: Very sedated
- duration of sedative and hypnotic effects ([5]; rat): not long lasting and the animal returned to normal
- LD0 ([5]; rat, oral or intraperitoneal): more than 2 g/kg
